The subject of experiment [1] is KITD814V and KITD814Y. The conditions noted are these: KITD814V and KITD814Y expressed in transfected cells; cited from earlier work.
Experiment [2] concerns HMC1.1 cells (naturally expressing KITV560G). In words: cells. Particulars: Homo sapiens, 72 h, read-out: inhibition of proliferation.
Protocol: The cell-viability assay was performed using an ATPlite™ assay (PerkinElmer Life Sciences, Boston, Mass.), according to the manufacturer's protocol. […] Cells were incubated for 72 hours in the presence or absence of KIT inhibitors and cell viability measured
The test system of experiment [3] is KIT816 mutants. The conditions noted are these: previous studies; cited from earlier work.
Experiment [4] deals with constitutively active KIT mutants exhibiting mutations in the juxtamembrane domain. Particulars: cited from earlier work.

Consider `CC(C)(C)n1nc(-c2ccc(Cl)cc2)c2c(N)ncnc21` [PP2], for which the “inhibition of activated KIT receptors” value in experiment [1] is “act as inhibitors of activated KIT receptors”. On to `Cc1ccc(NC(=O)c2ccc(CN3CCN(C)CC3)cc2)cc1Nc1nccc(-c2cccnc2)n1` [Gleevec], for which the inhibition at 0.1 µM in experiment [2] was roughly 80%. Also, in experiment [3], the “effectiveness against KIT816 mutants” value is “ineffective”. Further, in experiment [4], the “inhibition of constitutively active KIT mutants” value was “inhibit constitutively active KIT mutants”.

`Cc1ccc(-c2nn(C(C)(C)C)c3ncnc(N)c23)cc1` [PP1]: the “inhibition of activated KIT receptors” value in experiment [1] is on record as “act as inhibitors of activated KIT receptors”.

(Values after US20070225202A1, “Methods for Identifying Modulators of Active Kit Tyrosine Kinase Receptor” (priority 2003, published 2007).)
